Earlier results, collected in patent US20200078333A1, “Healthier Aging in Domesticated Animals” (priority 2016, published 2020).

Key:
[1] = target: T1, CB2 (Homo sapiens, UniProt P34972)
[2] = target: T2, CB1 (Homo sapiens, UniProt P21554); settings: read-out: binding affinity to CB1
[3] = target: T2, CB1; settings: Ca2+ flux induced by AEA
[4] = healthy as well as unhealthy persons
[5] = target: human CB1 cannabinoid receptors (Homo sapiens, UniProt P21554); settings: selective binding; function as antagonists/inverse agonists
Sequence of human CB1 cannabinoid receptors (P21554 whole entry): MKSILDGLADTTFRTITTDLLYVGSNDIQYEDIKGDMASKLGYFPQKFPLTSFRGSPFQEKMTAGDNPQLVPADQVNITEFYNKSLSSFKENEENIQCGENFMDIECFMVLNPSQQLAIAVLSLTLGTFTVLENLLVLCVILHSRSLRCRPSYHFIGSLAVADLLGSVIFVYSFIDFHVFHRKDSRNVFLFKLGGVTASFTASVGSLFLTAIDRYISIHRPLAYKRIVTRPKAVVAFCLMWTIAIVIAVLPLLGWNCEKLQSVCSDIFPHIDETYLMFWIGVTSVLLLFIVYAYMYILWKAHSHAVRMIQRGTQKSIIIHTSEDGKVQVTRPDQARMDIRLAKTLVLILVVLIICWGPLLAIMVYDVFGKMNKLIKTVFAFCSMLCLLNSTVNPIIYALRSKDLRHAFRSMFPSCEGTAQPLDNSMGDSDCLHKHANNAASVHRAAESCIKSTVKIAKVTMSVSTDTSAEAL

[6] = target: T1, CB2; remark: listed apart in the source
[7] = test system: nitric oxide (NO) production; settings: read-out: IC50 for inhibition of NO production

T1 sequence (P34972 whole entry, species assumed): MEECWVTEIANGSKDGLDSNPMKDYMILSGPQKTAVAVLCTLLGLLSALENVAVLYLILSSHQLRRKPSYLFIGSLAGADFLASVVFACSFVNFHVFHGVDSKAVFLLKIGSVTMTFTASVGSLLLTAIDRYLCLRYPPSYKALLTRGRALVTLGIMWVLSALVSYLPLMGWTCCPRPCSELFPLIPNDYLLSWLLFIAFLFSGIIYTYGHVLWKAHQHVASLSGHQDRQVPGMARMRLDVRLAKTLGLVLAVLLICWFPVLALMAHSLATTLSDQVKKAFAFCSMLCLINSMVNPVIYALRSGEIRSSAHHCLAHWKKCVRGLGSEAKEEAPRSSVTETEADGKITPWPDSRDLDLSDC
T2 sequence (P21554 whole entry, species assumed): as the sequence (P21554 whole entry) above

CCCCCC=CCCC=CC=CC(=O)N1CCCCC1 [1-[(2E,4E,8Z)-tetradecatrienoyl] piperidine]
CB1/CB2 affinity (CB2 selectivity) ([1]; ratio CB1/CB2): ~5
Ki ([1]; read-out: binding affinity to CB2): 160 nM
Ki [2]: 800 nM

CC1(C)[C@@H](O)CC[C@]2(C)[C@H]3C(=O)C=C4[C@@H]5C[C@@](C)(C(=O)O)CC[C@]5(C)CC[C@@]4(C)[C@]3(C)CC[C@@H]12 [18β-glycyrrhetinic acid]
inhibition in responses to CB1 agonist [3]: more than 90%

COC1=C(OC)C(=O)C(C/C=C(\C)CC/C=C(\C)CC/C=C(\C)CC/C=C(\C)CC/C=C(\C)CC/C=C(\C)CC/C=C(\C)CC/C=C(\C)CC/C=C(\C)CCC=C(C)C)=C(C)C1=O [CoQ10, ubiquinone]
tolerated daily dosage [4]: up to 3600 mg

COc1cc(/C=C/C(=O)CC(=O)/C=C/c2ccc(O)c(OC)c2)ccc1O [curcumin]
affinity for human CB1 cannabinoid receptors [5]: nanomolar affinities
affinity for CB2 [6]: micromolar affinity

C=CCc1ccc(O)c(-c2cc(CC=C)ccc2O)c1 [magnolol]
IC50 [7]: ~6.2 µM

Oc1ccc(/C=C/c2cc(O)cc(O)c2)cc1 [trans-resveratrol]
affinity for human CB1 cannabinoid receptors [5]: nanomolar affinities
